For 27 molecules, IC50 results are on record in patent publication US8557816B2, “Aurora kinase modulators and method of use” (Amgen Inc., priority 2007, dated 2013).

One test concerns the target T1, AuroraA-TPX2 (Homo sapiens, UniProt O14965).
T1 construct: 20 μL of AuroraA-TPX2 KD GST for a final volume of about 41 μL; GST
T1 sequence (O14965 133-383 limits assumed): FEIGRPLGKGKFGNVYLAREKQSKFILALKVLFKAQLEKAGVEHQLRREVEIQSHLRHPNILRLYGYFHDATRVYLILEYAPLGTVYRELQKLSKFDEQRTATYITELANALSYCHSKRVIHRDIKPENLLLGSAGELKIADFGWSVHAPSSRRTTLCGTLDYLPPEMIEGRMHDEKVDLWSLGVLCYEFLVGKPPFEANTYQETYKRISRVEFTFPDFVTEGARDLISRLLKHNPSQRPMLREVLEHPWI
T1 sequence (Q9ULW0 1-43 partner limits assumed): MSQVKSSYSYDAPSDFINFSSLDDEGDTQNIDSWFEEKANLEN
Put plainly: AuroraA-TPX2 Homogeneous Time Resolved Fluorescent (HTRF) kinase assay. The test is classed as biochemical. The settings on record: average; read-out: AurA_IC50_IP (uM Avg). A digest of the protocol: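 HTRF read-out (Eu 615 nm to APC 655 nm) of phosphorylated biotin-PLK, detected with 0.02 nM europium anti-phosphoPLK antibody and 0.0005 mg/mL SA-APC after overnight equilibration.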
A general note: TR-FRET usually uses a lanthanide donor and a delayed reading to cut background.

Another test has as its target T2, AuroraB (Homo sapiens, UniProt Q96GD4).
T2 construct: 20 μL of AuroraB FL H is for a final volume of 41 μL; His
Put plainly: AuroraB Homogeneous Time Resolved Fluorescent (HTRF) kinase assay. The class given is biochemical. The settings on record: average; read-out: AurB_IC50_IP (uM Avg). A digest of the protocol:
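Read-out is time-resolved FRET between europium anti-phospho-H3 antibody and streptavidin-APC, added in EDTA buffer to stop the reaction and equilibrated about 60 min (ex 320, em 615 and 655 nm). Preceding reaction: ~90 min, full-length enzyme, ATP, 0.1 μM biotin-Histone H3 substrate, Mg/Mn HEPES buffer pH 7.5.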

T2 sequence (Q96GD4 whole entry): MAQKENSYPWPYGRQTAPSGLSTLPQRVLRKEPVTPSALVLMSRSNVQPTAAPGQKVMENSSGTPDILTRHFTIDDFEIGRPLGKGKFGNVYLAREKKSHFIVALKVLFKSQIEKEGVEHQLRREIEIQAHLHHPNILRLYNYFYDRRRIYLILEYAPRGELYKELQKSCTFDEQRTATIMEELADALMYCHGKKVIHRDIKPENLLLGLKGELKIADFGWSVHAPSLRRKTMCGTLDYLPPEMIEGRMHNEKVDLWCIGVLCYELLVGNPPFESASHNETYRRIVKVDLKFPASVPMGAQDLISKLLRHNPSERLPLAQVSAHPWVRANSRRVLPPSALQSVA

For the molecule `COc1cnc2c(Oc3ccc(Nc4nnc(-c5ccc6[nH]ccc6c5)c5ccccc45)cc3)ccnc2c1` [compound 167, 4-(1H-indol-5-yl)-N-(4-((7-(methyloxy)-1,5-naphthyridin-4-yl)oxy)phenyl)-1-phthalazinamine], the IC50 is 0.013 µM at AuroraA-TPX2 and 0.004 µM on AuroraB.

On to `COc1cnc2c(Oc3ccc(Nc4nnc(-c5ccc6c(c5)CCO6)c5ccccc45)cc3)ccnc2c1` [compound 168, 4-(2,3-dihydro-1-benzofuran-5-yl)-N-(4-((7-(methyloxy)-1,5-naphthyridin-4-yl)oxy)phenyl)-1-phthalazinamine], for which the results for the IC50 on AuroraA-TPX2 and at AuroraB were 0.008 µM and 0.005 µM, respectively.

With `COc1cnc2c(Oc3ccc(Nc4nnc(-c5csc6ccccc56)c5ccccc45)cc3)ccnc2c1` [compound 169, 4-(1-benzothien-3-yl)-N-(4-((7-(methyloxy)-1,5-naphthyridin-4-yl)oxy)phenyl)-1-phthalazinamine], the IC50 on AuroraA-TPX2 is 0.01 µM; on AuroraB, 0.009 µM.

Take `Cc1csc(-c2nnc(Nc3ccc(Oc4ccnc5cc(C#N)ccc45)cc3)c3ccccc23)c1` [compound 170, 4-((4-((4-(4-methyl-2-thienyl)-1-phthalazinyl)amino)phenyl)oxy)-7-quinolinecarbonitrile]: the IC50 on AuroraA-TPX2 amounted to 0.016 µM; on AuroraB, 0.009 µM.

As for `COc1cnc2c(Oc3ccc(Nc4nnc(-c5cc6ccccc6s5)c5ccccc45)cc3)ccnc2c1` [compound 171, 4-(1-benzothien-2-yl)-N-(4-((7-(methyloxy)-1,5-naphthyridin-4-yl)oxy)phenyl)-1-phthalazinamine], the IC50 on AuroraA-TPX2 stood at 0.013 µM; on AuroraB it was 0.015 µM.

In the case of `COc1cnc2c(Oc3ccc(Nc4nnc(-c5ccc(C(F)(F)F)c(Cl)c5)c5ccccc45)cc3)ccnc2c1` [compound 172, 4-(3-chloro-4-(trifluoromethyl)phenyl)-N-(4-((7-(methyloxy)-1,5-naphthyridin-4-yl)oxy)phenyl)-1-phthalazinamine], the IC50 on AuroraA-TPX2 was 0.039 µM; at AuroraB, 0.017 µM.

With `COc1cnc2c(Oc3ccc(Nc4nnc(N5CC[C@H]6CCCC[C@H]6C5)c5ccccc45)cc3)ccnc2c1` [compound 173, N-(4-((7-(methyloxy)-1,5-naphthyridin-4-yl)oxy)phenyl)-4-((4aR,8aR)-octahydro-2(1H)-isoquinolinyl)-1-phthalazinamine], the IC50 on AuroraA-TPX2 and on AuroraB was 0.019 µM each time.

For the molecule `CCOc1nc(-c2nnc(Nc3ccc(Oc4ccnc5cc(OC)cnc45)cc3)c3ccccc23)cs1` [compound 175, 4-(2-(ethyloxy)-1,3-thiazol-4-yl)-N-(4-((7-(methyloxy)-1,5-naphthyridin-4-yl)oxy)phenyl)-1-phthalazinamine], the IC50 at AuroraA-TPX2 turned out to be 0.013 µM; on AuroraB, 0.003 µM.

`COc1cnc2c(Oc3ccc(Nc4nnc(-c5cc6ccccc6o5)c5ccccc45)cc3)ccnc2c1` [compound 176, 4-(1-benzofuran-2-yl)-N-(4-((7-(methyloxy)-1,5-naphthyridin-4-yl)oxy)phenyl)-1-phthalazinamine]: the IC50 stood at 0.007 µM on AuroraA-TPX2 and 0.002 µM at AuroraB.

As for `COc1cnc2c(Oc3ccc(Nc4nnc(-c5ccc(C(N)=O)cc5)c5ccccc45)cc3)ccnc2c1` [compound 177, 4-(4-((4-((7-(methyloxy)-1,5-naphthyridin-4-yl)oxy)phenyl)amino)-1-phthalazinyl)benzamide], the IC50 on AuroraA-TPX2 was found to be 0.206 µM; on AuroraB, 0.004 µM.

With `COc1cnc2c(Oc3ccc(Nc4nnc(-c5ccc(C)nc5F)c5ccccc45)cc3)ccnc2c1` [compound 178, 4-(2-fluoro-6-methyl-3-pyridinyl)-N-(4-((7-(methyloxy)-1,5-naphthyridin-4-yl)oxy)phenyl)-1-phthalazinamine], the IC50 at AuroraA-TPX2 is 0.035 µM; on AuroraB it was 0.002 µM.

For the molecule `O=C(Nc1cc(Oc2ccc(Nc3nnc(-c4ccccc4)c4ccccc34)cc2F)ccn1)N1CCOCC1` [compound 179, N-(4-((2-fluoro-4-((4-phenyl-1-phthalazinyl)amino)phenyl)oxy)-2-pyridinyl)-4-morpholinecarboxamide], the figures for the IC50 at AuroraA-TPX2 and at AuroraB were 0.18 µM and 0.043 µM, respectively.

As to `COc1cnc2c(Oc3ccc(Nc4nnc(-c5ccc(F)c(OC)c5)c5ccccc45)cc3)ccnc2c1` [compound 180, 4-(4-fluoro-3-(methyloxy)phenyl)-N-(4-((7-(methyloxy)-1,5-naphthyridin-4-yl)oxy)phenyl)-1-phthalazinamine], the results for the IC50 at AuroraA-TPX2 and on AuroraB were 0.027 µM and 0.004 µM, respectively.

With `COc1cnc2c(Oc3ccc(Nc4nnc(-c5ccc(C#N)cc5)c5ccccc45)cc3)ccnc2c1` [compound 181, 4-(4-((4-((7-(methyloxy)-1,5-naphthyridin-4-yl)oxy)phenyl)amino)-1-phthalazinyl)benzonitrile], the figures for the IC50 at AuroraA-TPX2 and on AuroraB were 0.171 µM and 0.007 µM, respectively.

`COc1cnc2c(Oc3ccc(Nc4nnc(-c5cnc6ccccc6c5)c5ccccc45)cc3)ccnc2c1` [compound 182, N-(4-((7-(methyloxy)-1,5-naphthyridin-4-yl)oxy)phenyl)-4-(3-quinolinyl)-1-phthalazinamine]: the values for the IC50 on AuroraA-TPX2 and at AuroraB were 0.023 µM and 0.002 µM, respectively.

`COc1cnc2c(Oc3ccc(Nc4nnc(-c5cccc6[nH]ccc56)c5ccccc45)cc3)ccnc2c1` [compound 183, 4-(1H-indol-4-yl)-N-(4-((7-(methyloxy)-1,5-naphthyridin-4-yl)oxy)phenyl)-1-phthalazinamine]: the IC50 came out at 0.033 µM at AuroraA-TPX2 and 0.003 µM at AuroraB.

Take `Cc1ccsc1-c1nnc(Nc2ccc(Oc3ccnc4cc(C#N)ccc34)cc2)c2ccccc12` [compound 184, 4-((4-((4-(3-methyl-2-thienyl)-1-phthalazinyl)amino)phenyl)oxy)-7-quinolinecarbonitrile]: the IC50 at AuroraA-TPX2 stood at 0.201 µM; at AuroraB, 0.003 µM.

Turning to `COc1cnc2c(Oc3ccc(Nc4nnc(-c5sccc5C)c5ccccc45)cc3)ccnc2c1` [compound 185, N-(4-((7-(methyloxy)-1,5-naphthyridin-4-yl)oxy)phenyl)-4-(3-methyl-2-thienyl)-1-phthalazinamine], the results for the IC50 on AuroraA-TPX2 and at AuroraB were 0.231 µM and 0.006 µM, respectively.

Consider `COc1cccc(-c2nnc(Nc3ccc(Oc4ccnc5ccccc45)c(F)c3)c3ccccc23)n1` [compound 186, N-(3-fluoro-4-(4-quinolinyloxy)phenyl)-4-(6-(methyloxy)-2-pyridinyl)-1-phthalazinamine], for which the IC50 is 0.059 µM at AuroraA-TPX2 and 0.002 µM on AuroraB.

Turning to `COc1cnc2c(Oc3ccc(Nc4nnc(-c5ccc(C)cc5)c5ccccc45)cc3F)ccnc2c1` [compound 187, N-(3-fluoro-4-((7-(methyloxy)-1,5-naphthyridin-4-yl)oxy)phenyl)-4-(4-methylphenyl)-1-phthalazinamine], the IC50 was 0.006 µM on AuroraA-TPX2 and 0.004 µM on AuroraB.

Turning to `COc1cnc2c(Oc3ccc(Nc4nnc(-c5cc(C)cc(C)c5)c5ccccc45)cc3)ccnc2c1` [compound 188, 4-(3,5-dimethylphenyl)-N-(4-((7-(methyloxy)-1,5-naphthyridin-4-yl)oxy)phenyl)-1-phthalazinamine], the results for the IC50 on AuroraA-TPX2 and at AuroraB were 0.017 µM and 0.006 µM, respectively.

Turning to `COc1cnc2c(Oc3ccc(Nc4nnc(-c5ncc(C)s5)c5ccccc45)cc3)ccnc2c1` [compound 189, N-(4-((7-(methyloxy)-1,5-naphthyridin-4-yl)oxy)phenyl)-4-(5-methyl-1,3-thiazol-2-yl)-1-phthalazinamine], the IC50 at AuroraA-TPX2 was found to be 0.022 µM; on AuroraB, 0.009 µM.

For the molecule `COc1cnc2c(Oc3ccc(Nc4nnc(-c5ccc(F)nc5)c5ccccc45)cc3)ccnc2c1` [compound 190, 4-(6-fluoro-3-pyridinyl)-N-(4-((7-(methyloxy)-1,5-naphthyridin-4-yl)oxy)phenyl)-1-phthalazinamine], the IC50 on AuroraA-TPX2 stood at 0.052 µM; on AuroraB, 0.005 µM.

As for `COc1cnc2c(Oc3ccc(Nc4nnc(-c5cccnc5F)c5ccccc45)cc3)ccnc2c1` [compound 191, 4-(2-fluoro-3-pyridinyl)-N-(4-((7-(methyloxy)-1,5-naphthyridin-4-yl)oxy)phenyl)-1-phthalazinamine], the IC50 on AuroraA-TPX2 was determined as 0.104 µM; at AuroraB, 0.009 µM.

As to `COc1cnc2c(Oc3ccc(Nc4nnc(-c5ccc(F)c(Cl)c5)c5ccccc45)cc3)ccnc2c1` [compound 193, 4-(3-chloro-4-fluorophenyl)-N-(4-((7-(methyloxy)-1,5-naphthyridin-4-yl)oxy)phenyl)-1-phthalazinamine], the IC50 on AuroraA-TPX2 is 0.023 µM; at AuroraB, 0.005 µM.

For `COc1cnc2c(Oc3ccc(Nc4nnc(-c5ccc(N(C)C)cc5)c5ccccc45)cc3)ccnc2c1` [compound 194, 4-(4-(dimethylamino)phenyl)-N-(4-((7-(methyloxy)-1,5-naphthyridin-4-yl)oxy)phenyl)-1-phthalazinamine], the IC50 is 0.023 µM at AuroraA-TPX2 and 0.01 µM at AuroraB.

Consider `COc1cnc2c(Oc3ccc(Nc4nnc(-c5ccc6sc(C)nc6c5)c5ccccc45)cc3)ccnc2c1` [compound 195, 4-(2-methyl-1,3-benzothiazol-5-yl)-N-(4-((7-(methyloxy)-1,5-naphthyridin-4-yl)oxy)phenyl)-1-phthalazinamine], for which the IC50 came out at 0.088 µM on AuroraA-TPX2 and 0.005 µM on AuroraB.
